Results from ChEMBL document CHEMBL4308861, “Structure-based design and discovery of potent and selective lysine-specific demethylase 1 (LSD1) inhibitors” (Bioorg Med Chem Lett, 2019).

Legend:
[1] = AUC (0 to 6 hrs) in CD-1 mouse at 10 mg/kg, po; format: ADME, organism-based; set-up: dose 10 mg/kg, time < 6 hr, route oral; details: in vivo
[2] = target: T1, Amine oxidase [flavin-containing] B (Homo sapiens, UniProt P27338); experiment: Inhibition of MAOB (unknown origin) at >20 uM
T1 sequence (P27338 whole entry): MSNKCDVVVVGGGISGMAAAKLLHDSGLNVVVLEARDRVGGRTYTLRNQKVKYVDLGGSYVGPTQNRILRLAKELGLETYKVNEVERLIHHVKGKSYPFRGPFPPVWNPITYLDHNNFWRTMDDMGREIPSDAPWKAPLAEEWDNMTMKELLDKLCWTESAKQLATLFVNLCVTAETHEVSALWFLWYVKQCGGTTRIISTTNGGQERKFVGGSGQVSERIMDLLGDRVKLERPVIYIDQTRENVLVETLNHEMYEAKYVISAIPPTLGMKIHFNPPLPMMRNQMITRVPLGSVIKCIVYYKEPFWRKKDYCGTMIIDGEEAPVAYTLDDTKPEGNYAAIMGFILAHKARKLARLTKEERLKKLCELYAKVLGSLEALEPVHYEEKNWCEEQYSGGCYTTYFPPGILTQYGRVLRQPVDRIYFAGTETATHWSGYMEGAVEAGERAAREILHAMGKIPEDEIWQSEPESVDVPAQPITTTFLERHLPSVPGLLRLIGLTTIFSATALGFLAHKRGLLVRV

hERG (KCNH2) = hERG (KCNH2) (Homo sapiens, UniProt Q12809); experiment: Inhibition of human ERG at 10 uM relative to control
Sequence of hERG (KCNH2) (Q12809 whole entry): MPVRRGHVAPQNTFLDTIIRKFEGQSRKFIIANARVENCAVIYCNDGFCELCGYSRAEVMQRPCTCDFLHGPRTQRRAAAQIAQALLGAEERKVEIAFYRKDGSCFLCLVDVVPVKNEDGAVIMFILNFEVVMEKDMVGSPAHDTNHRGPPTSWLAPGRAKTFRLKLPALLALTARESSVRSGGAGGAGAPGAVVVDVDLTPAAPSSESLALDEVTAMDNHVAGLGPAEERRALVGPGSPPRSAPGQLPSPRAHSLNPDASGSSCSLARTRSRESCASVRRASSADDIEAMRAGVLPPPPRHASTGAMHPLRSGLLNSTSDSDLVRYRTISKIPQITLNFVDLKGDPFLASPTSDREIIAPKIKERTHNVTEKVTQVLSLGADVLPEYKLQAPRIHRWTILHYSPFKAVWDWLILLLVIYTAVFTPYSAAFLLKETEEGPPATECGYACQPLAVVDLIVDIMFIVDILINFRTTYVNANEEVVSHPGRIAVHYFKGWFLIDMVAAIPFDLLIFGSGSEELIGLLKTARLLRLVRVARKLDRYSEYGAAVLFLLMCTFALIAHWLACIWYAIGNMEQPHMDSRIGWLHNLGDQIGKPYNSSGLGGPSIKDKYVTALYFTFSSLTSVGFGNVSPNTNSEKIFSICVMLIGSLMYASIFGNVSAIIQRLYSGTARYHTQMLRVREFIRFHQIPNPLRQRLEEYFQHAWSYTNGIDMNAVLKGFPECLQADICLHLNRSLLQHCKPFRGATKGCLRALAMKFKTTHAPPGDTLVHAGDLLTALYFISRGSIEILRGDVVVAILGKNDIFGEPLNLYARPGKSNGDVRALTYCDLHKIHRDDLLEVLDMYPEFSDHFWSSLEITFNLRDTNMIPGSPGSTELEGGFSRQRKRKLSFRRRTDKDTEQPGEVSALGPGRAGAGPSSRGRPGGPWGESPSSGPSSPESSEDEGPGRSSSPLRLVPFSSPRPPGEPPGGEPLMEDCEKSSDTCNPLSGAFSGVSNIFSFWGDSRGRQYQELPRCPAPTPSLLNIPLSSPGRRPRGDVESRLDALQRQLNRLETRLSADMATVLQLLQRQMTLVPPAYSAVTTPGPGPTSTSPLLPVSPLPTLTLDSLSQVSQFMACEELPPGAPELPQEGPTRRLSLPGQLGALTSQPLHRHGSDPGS

[3] = target: T2, Amine oxidase [flavin-containing] A (Homo sapiens, UniProt P21397); experiment: Inhibition of MAOA (unknown origin) at >20 uM
T2 sequence (P21397 whole entry): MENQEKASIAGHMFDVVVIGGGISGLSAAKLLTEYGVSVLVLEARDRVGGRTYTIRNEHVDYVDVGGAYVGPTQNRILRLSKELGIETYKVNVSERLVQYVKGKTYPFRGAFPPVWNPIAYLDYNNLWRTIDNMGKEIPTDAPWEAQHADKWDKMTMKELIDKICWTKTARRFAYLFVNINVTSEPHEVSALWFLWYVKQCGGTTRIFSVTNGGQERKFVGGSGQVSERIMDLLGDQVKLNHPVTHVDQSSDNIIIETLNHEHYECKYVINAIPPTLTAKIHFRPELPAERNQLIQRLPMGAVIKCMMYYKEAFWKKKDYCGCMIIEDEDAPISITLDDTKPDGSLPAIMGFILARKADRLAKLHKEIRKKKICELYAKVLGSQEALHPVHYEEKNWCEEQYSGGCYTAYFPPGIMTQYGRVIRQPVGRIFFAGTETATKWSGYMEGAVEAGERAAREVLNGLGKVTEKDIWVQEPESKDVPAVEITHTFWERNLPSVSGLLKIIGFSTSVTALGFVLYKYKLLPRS

[4] = target: T3, Lysine-specific histone demethylase 1A (Homo sapiens, UniProt O60341); experiment: Inhibition of LSD1 in human THP1 cells assessed as induction of CD11b expression after 4 days by LIVE/DEAD violet staining based FACS analysis
[5] = target: T3, Lysine-specific histone demethylase 1A; experiment: Inhibition of LSD1 (unknown origin)

SMILES | AUC(0-t) at 6 h [1] [ng·h/mL] | inhibition (INH) [2] | inhibition (INH) [3] | EC50 [4] [nM] | IC50 [5] [nM] | inhibition at 10 µM (hERG (KCNH2)) [%]
Cc1c(C(=O)N2CC[C@H](N(C)C)C2)nc(-c2ccc(C#N)c(F)c2)n1-c1cc2cn(C)nc2cc1F | 940 | Active | Active |  |  | 44
COc1ccc(-n2c(-c3ccc(C#N)c(F)c3)nc(C(=O)N3CCC[C@@H](N)C3)c2C)cc1F |  |  |  |  |  | 30
COc1ccc(-n2c(-c3ccc(C#N)c(F)c3)nc(C(=O)N3CC[C@H](N)C3)c2C)cc1F |  |  |  |  |  | 41
CN[C@H]1CCN(C(=O)c2nc(-c3ccc(C#N)c(F)c3)n(-c3cc4cn(C)nc4cc3F)c2C)C1 |  | Active | Active |  |  | 22
Cc1ccc(-c2ncc(OC[C@@H]3CCNC3)cc2-c2ccc(C#N)cc2)cc1 |  |  |  | 62 | 10 | 90
Cc1ccc(-n2c(-c3ccc(C#N)cc3)nc(C(=O)N3CCC[C@@H](N)C3)c2C)cc1 |  |  |  |  |  | 94
COc1ccc(-n2c(-c3ccc(C#N)c(F)c3)nc(C(=O)N[C@@H]3CCCNC3)c2C)cc1F |  |  |  |  |  | 65
COc1ccc(-n2c(-c3ccc(C#N)c(F)c3)nc(C(=O)N3CCC[C@@H](N)C3)c2C)cc1 |  |  |  |  |  | 69

The next lines start with results.

AUC(0-t) at 6 h [1] [ng·h/mL] | inhibition (INH) [2] | inhibition (INH) [3] | EC50 [4] [nM] | IC50 [5] [nM] | SMILES | inhibition at 10 µM (hERG (KCNH2)) [%]
100 | Active | Active |  |  | Cc1c(C(=O)N2CCC[C@@H](N)C2)nc(-c2ccc(C#N)c(F)c2)n1-c1ccc2nn(C)c(Cl)c2c1 | 28
80 | Active | Active |  |  | Cc1c(C(=O)N2CC[C@H](N)C2)nc(-c2ccc(C#N)c(F)c2)n1-c1ccc2nn(C)cc2c1 | 12
660 | Active | Active |  |  | Cc1c(C(=O)N2CC[C@H](N(C)C)C2)nc(-c2ccc(C#N)c(F)c2)n1-c1cc(F)c2nn(C)cc2c1 | 17
640 | Active | Active |  |  | CN[C@H]1CCN(C(=O)c2nc(-c3ccc(C#N)c(F)c3)n(-c3ccc4nn(C)c(Cl)c4c3)c2C)C1 | 24
25 |  |  |  |  | Cc1c(C(=O)N2CCC[C@@H](N)C2)nc(-c2ccc(C#N)c(F)c2)n1-c1ccc2nn(C)cc2c1 | < 10
760 | Active | Active |  |  | Cc1c(C(=O)N2CC[C@H](N(C)C)C2)nc(-c2ccc(C#N)c(F)c2)n1-c1ccc2nn(C)cc2c1 | 30
410 | Active | Active |  |  | CN[C@@H]1CCCN(C(=O)c2nc(-c3ccc(C#N)c(F)c3)n(-c3ccc4nn(C)c(Cl)c4c3)c2C)C1 | 34
106 |  |  |  |  | Cc1c(C(=O)N2CCC[C@@H](N)C2)nc(-c2ccc(C#N)c(F)c2)n1-c1ccc2c(cnn2C)c1 | 52
